Source: publication PMC9925432, “Thioquinoline derivatives conjugated to thiosemicarbazide as potent tyrosinase inhibitors with anti-melanogenesis properties” (Scientific Reports, 2023)
Entries after “also recorded” stand apart in the source; their conditions may differ. Read-outs that look alike come from different tables or passages of the source.

Assays:
[1] = set-up: method as in PMID 33640246; conditions: at 8 µM; cited from earlier work
[2] = biological target: T1, Mushroom tyrosinase (EC 1.14.18.1) (Agaricus bisporus, UniProt C7FF04); assay: Tyrosinase inhibitory assay (colorimetric, diphenolase activity, L-Dopa); type: biochemical; conditions: L-Dopa as substrate; means ± RSD of 3 independent experiments
T1 construct: purchased Sigma Chemical Co
T1 sequence (C7FF04 1-392 limits assumed): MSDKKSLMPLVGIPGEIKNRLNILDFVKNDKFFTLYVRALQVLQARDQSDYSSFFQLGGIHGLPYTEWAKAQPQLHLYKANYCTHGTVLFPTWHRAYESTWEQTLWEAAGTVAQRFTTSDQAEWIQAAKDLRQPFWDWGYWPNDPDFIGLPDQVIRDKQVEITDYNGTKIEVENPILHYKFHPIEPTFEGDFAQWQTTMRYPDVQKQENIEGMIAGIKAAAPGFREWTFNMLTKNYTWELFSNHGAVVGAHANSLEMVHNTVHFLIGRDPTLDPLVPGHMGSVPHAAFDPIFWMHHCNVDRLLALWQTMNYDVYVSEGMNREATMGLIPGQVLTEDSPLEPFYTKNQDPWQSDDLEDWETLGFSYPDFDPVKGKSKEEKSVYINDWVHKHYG
Procedure: Mushroom tyrosinase (EC 1.14.18.1) (Sigma Chemical Co.) was assayed using L-Dopa as the substrate as reported in our previous studies with some modifications[30]–[32]. The enzyme diphenolase activity was monitored spectrophotometrically by observing dopachrome formation at 490 nm. All the test samples were first dissolved in DMSO at 10 mM and diluted to the required concentrations. Initially, in a 96-well microplate, 10 µl of test samples were added to 160 µl of 50 mM phosphate buffer (pH = 6.8) and then 10 µl tyrosinase (500 U mL^−1) was added. After the mixture was pre-incubated at 28 °C for 20 min, 20 µl of L-Dopa solution (7 mM) was added to the mixture. After 10 min incubation absorbance of samples was measured. DMSO without test compounds was used as the control, and kojic acid was used as a positive control. Each assay was conducted as three separate replicates. The inhibitory activity of the tested compounds was expressed as the concentration that inhibited 50% of the enzyme activity (IC50). […]

mushroom tyrosinase [3] = assay: Enzyme kinetic study (Lineweaver–Burk plot); type: biochemical
Procedure: The Lineweaver–Burk reciprocal plot was provided by plotting 1/V against 1/[S] at variable concentrations of the substrate L-Dopa (0.25, 0.5, 0.75, and 1 mM) The inhibition constant Ki was achieved by the plot of slopes versus the corresponding concentrations of the compound 10g[24].

tyrosinase = assay: Fluorescence quenching of tyrosinase (Stern–Volmer); type: binding
Procedure: The fluorescent measurements were carried out in each well of the black 96 well plate by adding various concentrations of inhibitor 10g, (Q = 5, 10, 20, 40, and 100 µM) to a constant concentration of tyrosinase (273 IU/mL). Next, phosphate buffer solution (0.05 M, pH = 6.8) was used to bring the capacity of each well to 200 µL. Before measurements, all solutions were properly mixed and allowed to stand for 20 min at 298 K and 304 K. A fluorescence spectrometer (BioTek’s multi-mode plate reader, USA) was used to measure the fluorescence spectra. The bandwidths of excitation and emission were both set at 5 nm, and fluorescence emission spectra were captured spanning the wavelength range of 310–400 nm at an excitation wavelength of 280 nm.
The linear Stern–Volmer Eq. (1) was used to examine the fluorescence quenching:1 F0/F=1+kqτ0Q=1+kSV[Q] where, F and F0 represent the fluorescence intensity in the presence or absence of inhibitors, respectively. The bimolecular quenching constant is denoted by the symbol kq, whereas the average lifespan of a biomolecule without a quencher is denoted by the symbol τ0, and its value is 10^−8 s. [Q] refers to the inhibitor concentration (µM). KSV which is calculated by kq . τ0. is the fluorescence quenching constant.
In order to calculate the apparent binding constant and binding fraction of fluorophore group of tyrosinase accessible to inhibitor 10g, Stern–Volmer Eq. (1) should be modified to Eq. (2):2 LogF0-F/F=log KA+n LogQ
In this equation, KA indicates either the modified apparent binding constant or the Stern–Volmer quenching constant. n represents the fraction of fluorophore accessible to the quencher. The intercept of the curve that is obtained by plotting log (F0-F/F) versus log [Q] is log KA, and the slope of the curve is n. Therefore, the intercept and slope data may be used to calculate the values of KA and n.

[4] = MTT assay for cell viability, HEK 293; type: cell-based; conditions: human, HEK 293 cells, 48 h, MTT, mean ± S.E.M.
Procedure: (§1) The cytotoxic activity of all derivatives against the HEK 293 cell line and 10g against A375 (at a density of 5 × 10^3 cells/ml) using 3-(4,5-dimethylthiazol-2-yl)-2,5- diphenyltetrazolium bromide (MTT) assay were performed. Cells were grown at 37 °C in the presence of CO2 5% in DMEM (Gibco BRL, Grand Island, NY, USA), 10% fetal bovine serum (FBS, Gibco BRL), and penicillin/streptomycin (100 IU/mL and 100 µg/mL, respectively). Next cells were seeded in a 96-well plate and incubated at 37 ^∘C with derivatives at different concentrations for 48 h. Following the treatment, cells were incubated with MTT (0.5 mg/ml) at 37 ^∘C for 3 h. The MTT-containing medium was then removed, and 100 μl of DMSO was added to each well, mixed thoroughly with a 10 min shake to dissolve formazan crystals. The absorbance of each well was measured at 540 nm[33].

HEK 293 cell line = assay: MTT assay for cell viability, HEK 293; type: cell-based; conditions: HEK 293, 32 µM, 48 h, MTT; mean ± S.E.M.; 32 µM
Procedure: as §1

[5] = MTT assay for cell viability, A375; type: cell-based; conditions: human, A375 cells, 48 h, mean ± S.E.M.
Procedure: as §1

A375 cells = assay: MTT assay for cell viability, A375; type: cell-based; conditions: up to 32 μM
Procedure: as §1

A375 cell line = assay: Melanin content assay; type: cell-based; conditions: A375, 48 h, at tested concentrations, kojic acid positive control
Procedure: The assay was performed according to previously reported procedures. In detail, A375 cells were seeded in six-well plates (2.0 × 10^5 cells/well). After 24 h, the medium was replaced by a fresh one and treated with 10g at different concentrations and the plate was incubated for an extra 48 h. After that cells were washed twice with PBS and harvested using […], then dissolved in 300 μl of 1 N NaOH/10% DMSO buffer and boiled for 2 h at 80 °C to solubilize the melanin. The absorbance of the supernatant was measured at 470 nm in a microplate reader. The obtained results were normalized using total protein content. Kojic acid was used as a positive[30],[34].

mushroom tyrosinase [6] = conditions: cited from earlier work
melanoma cells = test system: melanoma cells; set-up: method as in PMID 28393917; conditions: cited from earlier work

O=c1cc(CSc2nc3ccccc3c(=O)n2Cc2ccccn2)occ1O [C]
melanin content [1]: 68.99%

NC(=S)N/N=C/c1cc2ccccc2nc1SCC(=O)Nc1ccc(Cl)cc1 [Compound 10g, (E)-2-((3-((2-carbamothioylhydrazono)methyl)quinolin-2-yl)thio)-N-(4-chlorophenyl)acetamide]
IC50 [2]: 25.7 µM
Km (mushroom tyrosinase [3]; 10g 1 µM): 800 µM
Vmax (mushroom tyrosinase [3]; 10g 1 µM): 80.00 mM/min
Km (mushroom tyrosinase [3]; 10g 10 µM): 850 µM
Vmax (mushroom tyrosinase [3]; 10g 10 µM): 67.57 mM/min
Km (mushroom tyrosinase [3]; 10g 20 µM): 850 µM
Vmax (mushroom tyrosinase [3]; 10g 20 µM): 50.25 mM/min
Km (mushroom tyrosinase [3]; 10g 40 µM): 950 µM
inhibition pattern (type of inhibition) (mushroom tyrosinase [3]; Lineweaver–Burk plot, L-Dopa as substrate): noncompetitive
KA (binding constant) (tyrosinase; 298 K): 71150 L/mol
Kq (bimolecular quenching constant) (tyrosinase; 298 K): 6.69 × 10^12 L⋅mol^–1⋅s^–1
Ksv (Stern–Volmer constant) (tyrosinase; 298 K): 6.69 × 10^4 L.mol^–1
n (binding sites) (tyrosinase; 298 K): 0.9288
n (binding sites) (tyrosinase; 298 K and 304 K): ~1
Kq (bimolecular quenching constant) (tyrosinase; 298 K and 304 K, all values): higher than 2 × 10^10 L⋅mol^−1⋅s^−1
KA (binding constant) (tyrosinase; 304 K): 52200 L/mol
Kq (bimolecular quenching constant) (tyrosinase; 304 K): 5.14 × 10^12 L⋅mol^–1⋅s^–1
Ksv (Stern–Volmer constant) (tyrosinase; 304 K): 5.14 × 10^4 L.mol^–1
n (binding sites) (tyrosinase; 304 K): 1.0604
viability at 48 h, 16 µM ([4]; HEK 293, 16 µM): 92.7 ± 1.47%
viability at 48 h, 32 µM ([4]; HEK 293, 32 µM): > 85%
viability at 48 h, 64 µM ([4]; HEK 293, 64 µM): 72.5 ± 2.41%
Cell viability (%) (HEK 293 cell line): 86.14 ± 2.17%
viability at 48 h, 16 µM ([5]; A375, 16 µM): 93.7 ± 2.24%
viability at 48 h, 32 µM ([5]; A375, 32 µM): 87.5 ± 1.53%
viability at 48 h, 64 µM ([5]; A375, 64 µM): 61.2 ± 3.91%
toxicity on A375 cell line (A375 cells): did not show significant toxicity
effect on melanin content (A375 cell line): reduced the melanin content; also recorded: significant reduction of melanin content
melting point: 185 to 191 °C

Oc1cnc2c(O)cccc2c1 [Jineol]
IC50 (mushroom tyrosinase [6]; L-Dopa as substrate): 50.35 ± 0.05 µM
IC50 (mushroom tyrosinase [6]; L-tyrosine as substrate): 39.46 ± 0.01 µM
effect on melanin content (melanoma cells): reduced melanin content
